Data on twelve molecules can be found in ChEMBL document CHEMBL5291721, “A preclinical secondary pharmacology resource illuminates target-adverse drug reaction associations of marketed drugs” (Nat Commun, 2023).

Assay [1] addresses T1, Thromboxane A2 receptor (Homo sapiens, UniProt P21731).
T1 sequence (P21731 whole entry): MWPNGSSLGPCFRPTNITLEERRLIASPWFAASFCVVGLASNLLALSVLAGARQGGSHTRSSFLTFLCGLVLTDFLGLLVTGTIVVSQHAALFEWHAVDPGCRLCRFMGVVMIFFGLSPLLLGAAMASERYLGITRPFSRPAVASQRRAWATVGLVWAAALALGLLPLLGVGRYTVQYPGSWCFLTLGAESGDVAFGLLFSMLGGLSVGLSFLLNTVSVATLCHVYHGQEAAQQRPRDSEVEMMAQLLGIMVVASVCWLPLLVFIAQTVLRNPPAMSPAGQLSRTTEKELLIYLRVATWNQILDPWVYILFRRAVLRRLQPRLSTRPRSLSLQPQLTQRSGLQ

The target in assay [2] is Sodium-dependent serotonin transporter (Homo sapiens, UniProt P31645).
In assay [3] the target is Histamine H1 receptor (Homo sapiens, UniProt P35367).
Assay [4] concerns the target Sodium-dependent noradrenaline transporter (Homo sapiens, UniProt P23975).
Assay [5] addresses D(3) dopamine receptor (Homo sapiens, UniProt P35462).
Assay [6] deals with Histamine H2 receptor (Homo sapiens, UniProt P25021). In kind it is functional, cell-based.
The target in assay [7] is Sodium-dependent dopamine transporter (Homo sapiens, UniProt Q01959).
Assay [8] has as its target T2, Progesterone receptor (Homo sapiens, UniProt P06401).
T2 sequence (P06401 whole entry): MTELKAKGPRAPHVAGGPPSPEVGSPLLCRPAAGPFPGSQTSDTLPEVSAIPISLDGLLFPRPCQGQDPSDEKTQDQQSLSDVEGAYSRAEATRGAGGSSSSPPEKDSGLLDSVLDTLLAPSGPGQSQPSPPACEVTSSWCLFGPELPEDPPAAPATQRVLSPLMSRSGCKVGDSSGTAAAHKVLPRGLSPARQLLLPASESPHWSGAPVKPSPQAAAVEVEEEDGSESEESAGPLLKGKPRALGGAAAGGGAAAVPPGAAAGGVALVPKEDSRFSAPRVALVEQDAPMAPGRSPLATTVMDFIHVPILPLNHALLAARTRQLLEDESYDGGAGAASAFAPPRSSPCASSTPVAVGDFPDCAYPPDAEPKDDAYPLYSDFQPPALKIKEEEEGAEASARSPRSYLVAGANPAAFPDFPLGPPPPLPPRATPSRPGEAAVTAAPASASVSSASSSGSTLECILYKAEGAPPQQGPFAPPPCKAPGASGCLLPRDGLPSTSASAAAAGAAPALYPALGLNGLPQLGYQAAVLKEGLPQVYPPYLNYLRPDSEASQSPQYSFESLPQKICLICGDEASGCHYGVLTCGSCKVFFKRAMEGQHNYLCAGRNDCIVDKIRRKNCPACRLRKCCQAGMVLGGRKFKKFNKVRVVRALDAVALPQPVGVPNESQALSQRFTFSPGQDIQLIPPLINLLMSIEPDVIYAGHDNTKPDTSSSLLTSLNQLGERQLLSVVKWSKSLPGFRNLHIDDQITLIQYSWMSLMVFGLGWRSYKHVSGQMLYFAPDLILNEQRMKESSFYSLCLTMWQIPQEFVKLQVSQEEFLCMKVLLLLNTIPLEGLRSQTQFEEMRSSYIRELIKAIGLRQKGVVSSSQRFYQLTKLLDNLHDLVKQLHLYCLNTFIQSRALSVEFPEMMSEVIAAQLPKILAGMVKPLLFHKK
It counts as functional.

Assay [9] addresses Histamine H3 receptor (Homo sapiens, UniProt Q9Y5N1).
For assay [10], the target named is Delta-type opioid receptor (Homo sapiens, UniProt P41143).
Assay [11] concerns the target T3, 5-hydroxytryptamine receptor 2C (Homo sapiens, UniProt P28335).
T3 sequence (P28335 whole entry): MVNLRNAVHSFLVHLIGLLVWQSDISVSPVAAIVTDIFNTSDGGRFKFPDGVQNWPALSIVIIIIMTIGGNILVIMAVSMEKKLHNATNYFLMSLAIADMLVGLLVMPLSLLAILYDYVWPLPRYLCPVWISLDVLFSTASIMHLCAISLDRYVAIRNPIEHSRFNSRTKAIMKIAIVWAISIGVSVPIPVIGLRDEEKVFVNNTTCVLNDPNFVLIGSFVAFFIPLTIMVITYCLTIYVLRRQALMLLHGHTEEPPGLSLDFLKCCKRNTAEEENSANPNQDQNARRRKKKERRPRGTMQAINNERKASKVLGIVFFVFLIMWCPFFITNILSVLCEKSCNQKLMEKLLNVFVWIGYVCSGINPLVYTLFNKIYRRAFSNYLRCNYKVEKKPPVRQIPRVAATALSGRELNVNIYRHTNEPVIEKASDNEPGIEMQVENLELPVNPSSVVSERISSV

Assay [12] addresses T4, Glucocorticoid receptor (Homo sapiens, UniProt P04150).
T4 sequence (P04150 whole entry): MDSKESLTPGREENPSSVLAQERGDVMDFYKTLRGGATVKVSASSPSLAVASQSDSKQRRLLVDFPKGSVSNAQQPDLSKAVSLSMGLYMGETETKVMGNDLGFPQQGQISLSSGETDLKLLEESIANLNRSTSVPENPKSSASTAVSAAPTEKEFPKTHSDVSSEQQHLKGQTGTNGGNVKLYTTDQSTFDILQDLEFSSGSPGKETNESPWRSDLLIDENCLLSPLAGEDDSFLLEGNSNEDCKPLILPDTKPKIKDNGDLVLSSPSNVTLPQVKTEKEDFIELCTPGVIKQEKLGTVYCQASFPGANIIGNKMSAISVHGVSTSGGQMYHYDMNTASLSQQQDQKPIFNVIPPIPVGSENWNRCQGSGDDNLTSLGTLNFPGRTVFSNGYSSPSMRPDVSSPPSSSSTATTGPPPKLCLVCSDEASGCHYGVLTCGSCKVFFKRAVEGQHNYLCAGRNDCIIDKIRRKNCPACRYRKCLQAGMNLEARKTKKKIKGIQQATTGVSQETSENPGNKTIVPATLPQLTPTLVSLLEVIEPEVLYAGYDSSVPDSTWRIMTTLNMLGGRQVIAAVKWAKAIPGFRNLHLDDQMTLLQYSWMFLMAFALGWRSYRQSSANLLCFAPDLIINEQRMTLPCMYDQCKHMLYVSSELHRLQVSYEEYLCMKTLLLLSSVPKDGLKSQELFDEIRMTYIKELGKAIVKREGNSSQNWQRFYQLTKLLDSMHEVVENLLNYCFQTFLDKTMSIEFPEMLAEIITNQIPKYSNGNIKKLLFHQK

Bounds are passed on as bounds.
Also: assay procedure not described here.

Chain of Sodium-dependent dopamine transporter (Q01959 whole entry): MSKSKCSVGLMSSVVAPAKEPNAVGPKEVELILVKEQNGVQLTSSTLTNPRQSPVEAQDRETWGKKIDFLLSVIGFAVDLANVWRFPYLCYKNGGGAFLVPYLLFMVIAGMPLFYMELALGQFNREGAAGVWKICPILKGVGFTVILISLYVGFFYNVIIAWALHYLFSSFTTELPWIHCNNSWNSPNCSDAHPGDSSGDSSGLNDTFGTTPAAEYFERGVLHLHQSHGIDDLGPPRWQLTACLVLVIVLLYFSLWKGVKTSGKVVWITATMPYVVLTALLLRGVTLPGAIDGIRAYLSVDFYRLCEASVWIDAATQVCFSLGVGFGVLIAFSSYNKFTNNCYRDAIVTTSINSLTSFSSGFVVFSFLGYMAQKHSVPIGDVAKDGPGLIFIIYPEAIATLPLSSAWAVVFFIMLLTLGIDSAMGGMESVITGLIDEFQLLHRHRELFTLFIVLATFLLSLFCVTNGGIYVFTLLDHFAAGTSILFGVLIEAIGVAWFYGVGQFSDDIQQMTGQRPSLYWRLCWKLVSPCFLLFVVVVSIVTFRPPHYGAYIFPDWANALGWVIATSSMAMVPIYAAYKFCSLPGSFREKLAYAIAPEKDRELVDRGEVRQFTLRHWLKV
Chain of Histamine H1 receptor (P35367 whole entry): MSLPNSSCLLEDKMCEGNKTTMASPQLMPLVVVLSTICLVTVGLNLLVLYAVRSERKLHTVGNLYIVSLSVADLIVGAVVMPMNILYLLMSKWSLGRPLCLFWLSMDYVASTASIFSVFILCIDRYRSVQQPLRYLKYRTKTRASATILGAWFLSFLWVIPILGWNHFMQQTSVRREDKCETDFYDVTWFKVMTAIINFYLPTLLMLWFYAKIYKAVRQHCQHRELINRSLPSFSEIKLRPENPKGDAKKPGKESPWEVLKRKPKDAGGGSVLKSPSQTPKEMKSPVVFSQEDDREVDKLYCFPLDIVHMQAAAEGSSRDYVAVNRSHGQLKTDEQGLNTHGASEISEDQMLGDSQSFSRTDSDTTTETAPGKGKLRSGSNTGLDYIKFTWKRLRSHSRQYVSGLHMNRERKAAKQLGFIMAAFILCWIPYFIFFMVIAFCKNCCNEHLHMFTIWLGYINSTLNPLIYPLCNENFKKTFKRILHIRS
Chain of Sodium-dependent noradrenaline transporter (P23975 whole entry): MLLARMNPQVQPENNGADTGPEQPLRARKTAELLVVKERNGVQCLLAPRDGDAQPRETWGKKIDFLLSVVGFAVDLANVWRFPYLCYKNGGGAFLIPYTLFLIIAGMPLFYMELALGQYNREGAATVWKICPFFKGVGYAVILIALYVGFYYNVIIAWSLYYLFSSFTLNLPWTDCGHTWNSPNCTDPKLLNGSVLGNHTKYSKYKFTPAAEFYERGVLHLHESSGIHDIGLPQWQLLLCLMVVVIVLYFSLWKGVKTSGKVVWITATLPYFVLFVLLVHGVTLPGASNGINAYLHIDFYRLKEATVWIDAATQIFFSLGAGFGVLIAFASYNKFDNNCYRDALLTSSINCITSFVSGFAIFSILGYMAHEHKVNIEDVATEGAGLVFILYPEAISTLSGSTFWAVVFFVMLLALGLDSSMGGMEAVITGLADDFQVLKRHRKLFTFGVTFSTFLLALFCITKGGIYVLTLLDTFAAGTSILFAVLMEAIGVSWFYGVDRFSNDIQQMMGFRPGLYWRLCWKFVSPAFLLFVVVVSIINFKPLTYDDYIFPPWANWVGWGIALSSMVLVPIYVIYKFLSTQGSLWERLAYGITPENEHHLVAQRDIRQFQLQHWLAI
Chain of Histamine H2 receptor (P25021 whole entry): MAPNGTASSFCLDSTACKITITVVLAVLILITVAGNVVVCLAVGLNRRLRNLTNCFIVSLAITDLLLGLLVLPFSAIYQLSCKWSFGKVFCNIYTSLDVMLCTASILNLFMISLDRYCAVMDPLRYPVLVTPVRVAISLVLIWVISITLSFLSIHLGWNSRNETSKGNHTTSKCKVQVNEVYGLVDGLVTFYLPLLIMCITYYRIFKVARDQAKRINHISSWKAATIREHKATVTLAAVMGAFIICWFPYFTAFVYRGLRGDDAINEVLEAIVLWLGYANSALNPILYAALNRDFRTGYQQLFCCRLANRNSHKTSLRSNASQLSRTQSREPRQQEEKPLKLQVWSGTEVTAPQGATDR
Chain of Delta-type opioid receptor (P41143 whole entry): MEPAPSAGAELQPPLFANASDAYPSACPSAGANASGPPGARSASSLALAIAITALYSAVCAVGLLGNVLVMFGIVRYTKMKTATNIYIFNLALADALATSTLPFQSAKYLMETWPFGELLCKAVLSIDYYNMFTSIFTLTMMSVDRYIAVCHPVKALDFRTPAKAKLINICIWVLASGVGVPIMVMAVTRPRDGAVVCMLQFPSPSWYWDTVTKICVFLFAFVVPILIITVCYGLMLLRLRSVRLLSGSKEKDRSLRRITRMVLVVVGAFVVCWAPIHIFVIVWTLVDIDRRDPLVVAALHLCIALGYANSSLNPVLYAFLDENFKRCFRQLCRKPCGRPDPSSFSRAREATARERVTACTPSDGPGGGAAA
Chain of Sodium-dependent serotonin transporter (P31645 whole entry): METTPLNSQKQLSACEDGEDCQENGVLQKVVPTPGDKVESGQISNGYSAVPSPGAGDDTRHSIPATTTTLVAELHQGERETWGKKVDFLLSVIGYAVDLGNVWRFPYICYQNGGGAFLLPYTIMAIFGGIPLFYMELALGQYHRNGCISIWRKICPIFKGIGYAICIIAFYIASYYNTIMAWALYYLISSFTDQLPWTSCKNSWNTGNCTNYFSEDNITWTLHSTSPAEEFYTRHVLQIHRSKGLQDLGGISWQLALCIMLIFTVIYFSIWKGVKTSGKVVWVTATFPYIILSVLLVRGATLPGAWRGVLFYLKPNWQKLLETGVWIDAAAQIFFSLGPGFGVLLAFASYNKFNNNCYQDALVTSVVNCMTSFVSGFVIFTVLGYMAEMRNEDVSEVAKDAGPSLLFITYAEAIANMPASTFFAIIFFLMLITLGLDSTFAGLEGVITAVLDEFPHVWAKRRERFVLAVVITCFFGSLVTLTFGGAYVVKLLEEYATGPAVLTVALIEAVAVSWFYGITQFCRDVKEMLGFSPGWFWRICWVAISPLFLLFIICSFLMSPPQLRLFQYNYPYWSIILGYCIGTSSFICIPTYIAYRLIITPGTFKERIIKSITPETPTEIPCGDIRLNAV
Chain of D(3) dopamine receptor (P35462 whole entry): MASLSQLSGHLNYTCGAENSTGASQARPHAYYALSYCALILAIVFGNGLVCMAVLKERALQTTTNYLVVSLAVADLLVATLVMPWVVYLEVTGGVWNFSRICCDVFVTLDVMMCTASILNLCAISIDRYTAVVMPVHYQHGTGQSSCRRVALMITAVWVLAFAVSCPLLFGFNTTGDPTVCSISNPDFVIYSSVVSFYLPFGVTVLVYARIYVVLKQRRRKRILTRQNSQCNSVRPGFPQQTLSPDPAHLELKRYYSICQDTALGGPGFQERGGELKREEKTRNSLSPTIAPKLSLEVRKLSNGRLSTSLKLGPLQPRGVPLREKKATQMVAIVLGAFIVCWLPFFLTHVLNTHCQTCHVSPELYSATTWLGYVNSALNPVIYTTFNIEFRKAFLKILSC
Chain of Histamine H3 receptor (Q9Y5N1 whole entry): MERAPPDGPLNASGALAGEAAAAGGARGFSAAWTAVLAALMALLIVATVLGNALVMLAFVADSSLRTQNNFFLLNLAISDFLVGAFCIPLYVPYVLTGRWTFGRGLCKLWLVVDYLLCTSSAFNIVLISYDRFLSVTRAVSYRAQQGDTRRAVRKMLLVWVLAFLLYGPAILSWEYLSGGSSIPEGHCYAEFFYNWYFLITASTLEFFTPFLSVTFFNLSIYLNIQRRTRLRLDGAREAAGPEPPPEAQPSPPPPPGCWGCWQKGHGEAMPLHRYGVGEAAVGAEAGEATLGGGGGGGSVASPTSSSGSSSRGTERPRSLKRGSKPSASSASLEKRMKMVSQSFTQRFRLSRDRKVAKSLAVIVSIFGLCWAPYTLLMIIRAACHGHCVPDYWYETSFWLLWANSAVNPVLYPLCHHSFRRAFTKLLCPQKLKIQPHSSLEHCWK

As usually defined, the AC50 is the midpoint of the concentration-response curve, whichever way the signal moves. Low values mean greater potency, high ones weaker potency. Consider `COc1cc(N)cn[n+]1-c1ccccc1` [AMEZINIUM METILSULFATE], for which the AC50 in assay [1] is > 30 µM; in [2] it was 17 µM; in assay [3], > 30 µM; in assay [4], 3.9 µM; in assay [5], > 30 µM; in assay [6] it was > 30 µM. Also, the AC50 is 5.7 µM in [7]; > 30 µM in [8]; > 30 µM in assay [9]; > 30 µM in assay [10]; > 30 µM in assay [11].

Consider `COc1ccc(-n2nc(C(N)=O)c3c2C(=O)N(c2ccc(N4CCCCC4=O)cc2)CC3)cc1` [APIXABAN], for which the concentration at half-maximal activity (AC50) in assay [2], in assay [3], in assay [4], in assay [5], in assay [6] and in [7] was > 30 µM in each case. Also, the AC50 in assay [8], in assay [9], in [10] and in [11] was > 30 µM each time.

Turning to `CCCCCCOC(=O)NC(=N)c1ccc(NCc2nc3cc(C(=O)N(CCC(=O)OCC)c4ccccn4)ccc3n2C)cc1` [DABIGATRAN ETEXILATE], the half-maximal activity concentration (AC50) is > 30 µM in assay [2]; > 30 µM in [3]; 6.3 µM in assay [4]; > 30 µM in assay [5]; > 30 µM in assay [6]; 17 µM in assay [7]. Also, the concentration at half-maximal activity (AC50) in [8], in assay [9], in assay [10] and in assay [11] was > 30 µM throughout.

For the molecule `COC(=O)[C@H]1[C@H]2C[C@@H]3c4[nH]c5ccccc5c4CCN3C[C@H]2C[C@@H](OC(=O)c2cc(OC)c(OC)c(OC)c2)[C@@H]1OC` [DESERPIDINE], the AC50 in assay [1] is > 30 µM; in [2] it was > 10 µM; in assay [3], > 10 µM; in assay [4] it was > 10 µM; in assay [5] it was > 30 µM; in [6] it was > 10 µM. Moreover, the AC50 was > 10 µM in assay [7], > 30 µM in assay [8], > 30 µM in [10] and > 30 µM in assay [11].

On to `CCN(CC)C(C)C(=O)c1ccccc1` (stereo not given) [DIETHYLPROPION], for which the AC50 in assay [1] was > 30 µM; in assay [2], > 30 µM; in assay [3], 12 µM; in assay [4] it was > 30 µM; in assay [5], > 30 µM; in assay [6], > 10 µM. The AC50 in [7] is > 30 µM; in assay [9], > 10 µM; in assay [10] it was > 30 µM; in assay [11], > 30 µM.

`Cc1ccc(-c2ncc(Cl)cc2-c2ccc(S(C)(=O)=O)cc2)cn1` [ETORICOXIB]: the half-maximal activity concentration (AC50) in [1], in assay [2], in assay [3], in [4], in [5] and in assay [6] was > 10 µM in each case. The AC50 in [7], in assay [9], in [10] and in assay [11] was > 10 µM in each case.

Consider `COc1ccc2c3c1O[C@H]1C(=O)CC[C@H]4[C@@H](C2)N(C)CC[C@]314` [HYDROCODONE], for which the concentration at half-maximal activity (AC50) in [1] was > 30 µM; in [2] it was > 10 µM; in assay [3], > 10 µM; in assay [4], > 10 µM; in [5] it was > 10 µM; in assay [6], > 10 µM. Also, the AC50 was > 10 µM in [7], > 10 µM in assay [9] and > 30 µM in [11].

`CC1NCCOC1c1ccccc1` (stereo not given) [PHENMETRAZINE]: the AC50 is > 30 µM in [1]; > 30 µM in [2]; > 10 µM in [3]; 11.4 µM in assay [4]; > 30 µM in [5]; > 10 µM in assay [6]. The AC50 in [7] is 25.6 µM; in [9] it was > 10 µM; in assay [10] it was > 30 µM; in [11], > 30 µM.

Take `CCCCOC(=O)C(=O)Nc1cccc(-c2nnn[nH]2)c1` [TAZANOLAST]: the AC50 in assay [1], in [2], in assay [3], in assay [4], in assay [5] and in assay [6] was > 30 µM in each case. The AC50 in assay [7], in assay [8], in assay [9] and in [10] was > 30 µM throughout.

In the case of `CC(C(=O)O)c1ccc(C(=O)c2ccccc2)s1` (stereo not given) [TIAPROFENIC ACID], the AC50 was > 10 µM in [1]; > 10 µM in assay [2]; > 10 µM in [4]; 8.6 µM in assay [5]; > 10 µM in assay [6]; > 10 µM in assay [7]. Also, the concentration at half-maximal activity (AC50) in assay [8] is > 10 µM; in assay [9], > 10 µM; in [10], > 30 µM; in assay [11], > 30 µM.

As for SITOSTEROLS, the AC50 in assay [1], in assay [3], in assay [4], in assay [5], in [6] and in assay [7] was > 30 µM in each case. Moreover, the AC50 in assay [9], in assay [10], in assay [12] and in assay [11] was > 30 µM in each case.

On to TEPRENONE, for which the AC50 in [1] was > 30 µM; in [3], > 10 µM; in assay [4], > 30 µM; in [5], > 30 µM; in assay [6] it was > 10 µM; in assay [7], > 30 µM. Moreover, the concentration at half-maximal activity (AC50) in assay [9] was > 10 µM; in [10] it was > 30 µM; in assay [12], > 30 µM; in assay [11], > 30 µM.
